Source: patent publication USRE38863E1, “Chemotaxis assay procedure” (priority 1995, dated 2005)
Where “and” joins values, the source holds several entries; their conditions need not be identical. Equal values may be shown once.

System: HL-60 cells
Assay: Chemotaxis assay: fluorescence of Di-I labeled cells migrated across radiation opaque membrane
Format: cell-based
Method: The cell line HL-60 (ATCC No. CCL 240) was maintained in logarithmic growth phase as a suspension culture at about 10^6 cells/mL. in RPMI 1640 medium (Mediatech Cellgrow, Fisher Scientific, Pittsburgh, PA.) supplemented with 20% (volume by volume) fetal bovine serum. (Hyclone Laboratories, Salt Lake City, UT). The cells were differentiated into mature myelocytes and neutrophils by incubating the cells for 48 hours at 37° C. in media containing 1.5% (volume by volume) dimethylsulfoxide.
Following the treatment with dimethylsulfoxide, the cells were incubated with 50 μM Di-I fluorescent dye (Molecular Probes, Inc., Eugene, OR) at room temperature for 0.5-2 hours. The cells were then washed with Hanks' Balanced Salt Solution (“HBSS”) (Sigma Chemical Co., St. Louis, MO.) and re-suspended in HBSS to achieve a cell concentration of 10^6 cells/mL. The fluorescence of 0.5 mL. of cell suspension was measured in a Cytofluor™ 2300 fluorescent plate reader (Millipore Corp., Marlborough, MA.).
Membrane 1: Polycarbonate film having a plurality of pores of 8 μm diameter were coated with four molecular layers of carbon and one layer of an admixture of gold and palladium in a vacuum evaporator. […] 6 mm disks of the radiation opaque membrane were glued to the bottom of inserts similar to the Millicell HA-12 mm (Millipore Corp.) or the Transwell-6.5 mm (Costar Corp., Cambridge, MA.) inserts with clear silicone rubber cement.
Membrane 2: A non-porous polyester film (18 μm thick) containing a blue dye (Aquired Technology Inc., Alpharetta, GA.) was subjected to atomic etching to produce a 10 μm thick radiation opaque membrane containing a plurality of pores of 8 μm diameter having a combined radiation blocking efficiency of approximately 99%. 6 mm disks of the radiation opaque membrane were glued to the bottoms of inserts as with membrane 1.
Each insert equipped with the either membrane 1 or membrane 2 were placed in a well of a 24-well culture plate (Falcon, Fisher Scientific). 0.5 mL of labeled cell suspension was placed inside each insert. The plate was incubated for 30 minutes at 37° C. to allow the cells to settle on the radiation opaque membrane. The fluorescence of each well was then measured with the Cytofluor™ 2300 to obtain a zero time reading. 0.5 mL of either N-formyl methionyl leucyl phenylalanine (“f-MLP”) (Sigma Chemical Co.) or HBBS was then added to each well. The fluorescence in each well was then measured at periodic time intervals using the Cytofluor™ 2300 at sensitivity setting 4. Results using membrane 1 are reported in Tables 1 and 2 and graphically illustrated in FIGS. 4 and 5. Results using membrane 2 are reported in Table 3 and graphically illustrated in FIGS. 6 and 7.

[1] = membrane 1, f-MLP/f-MLP (f-MLP also added to cell suspension immediately before start), 10^−7 M
[2] = membrane 1, insert/well HBSS/f-MLP, f-MLP Conc. = 10^−8 M
[3] = membrane 1, insert/well f-MLP/f-MLP (f-MLP added to cell suspension immediately before start), 10^−8 M
[4] = membrane 1, test solutions well/insert HBSS/f-MLP, f-MLP Conc. = 10^−7 M
[5] = membrane 2, Millicell-type insert, well 20: Insert leaked, insert/well HBSS/f-MLP, 2 × 10^−8 M
[6] = membrane 2, Millicell-type inserts, insert/well HBSS/f-MLP, f-MLP Conc. = 2 × 10^−8 M
[7] = membrane 2, Millicell-type inserts, insert/well f-MLP/f-MLP (f-MLP added to cell suspension immediately before start), 2 × 10^−8 M
[8] = membrane 2, Transwell-type inserts, insert/well HBSS/f-MLP, f-MLP Conc. = 2 × 10^−8 M
[9] = membrane 2, Transwell-type inserts, insert/well f-MLP/f-MLP (f-MLP added to cell suspension immediately before start), 2 × 10^−8 M

Structure (SMILES): CSCC[C@H](NC=O)C(=O)N[C@@H](CC(C)C)C(=O)N[C@@H](Cc1ccccc1)C(=O)O [f-MLP, N-formyl methionyl leucyl phenylalanine]
- Fluorescence 0 hr. (membrane 1, f-MLP/f-MLP (f-MLP also added to cell suspension immediately before start), 10^−7 M, 0 hr.): 706
- Fluorescence 1 hr. [1]: 654
- Fluorescence 2 hr. [1]: 708
- Fluorescence 3 hr. [1]: 732
- Fluorescence 4 hr. [1]: 728
- Fluorescence 5 hr. [1]: 753
- FLUORESCENCE 0 min. (membrane 1, insert/well HBSS/f-MLP, f-MLP Conc. = 10^−8 M, 0 min. (zero time reading)): 2515 and 2927 and 2895 and 2631 and 2594
- FLUORESCENCE 15 min. [2]: 3388 and 4195 and 4165 and 3398 and 3446
- FLUORESCENCE 30 min. [2]: 3594 and 4475 and 4400 and 3584 and 3707
- FLUORESCENCE 60 min. [2]: 3614 and 4642 and 4539 and 3645 and 3813
- FLUORESCENCE 90 min. [2]: 3717 and 4761 and 4642 and 3728 and 3932
- FLUORESCENCE 150 min. [2]: 3770 and 4788 and 4655 and 3728 and 3999
- FLUORESCENCE 0 min. (membrane 1, insert/well f-MLP/f-MLP (f-MLP added to cell suspension immediately before start), 10^−8 M, 0 min.): 2854
- FLUORESCENCE 15 min. [3]: 2675
- FLUORESCENCE 30 min. [3]: 2721
- FLUORESCENCE 60 min. [3]: 2721
- FLUORESCENCE 90 min. [3]: 2783
- FLUORESCENCE 150 min. [3]: 2783
- Fluorescence 0 hr. (membrane 1, test solutions well/insert HBSS/f-MLP, f-MLP Conc. = 10^−7 M, 0 hr. (zero time reading)): 383
- Fluorescence 1 hr. [4]: 1046
- Fluorescence 2 hr. [4]: 1355
- Fluorescence 3 hr. [4]: 1433
- Fluorescence 4 hr. [4]: 1370
- Fluorescence 5 hr. [4]: 1359
- Fluorescence 0 hr. (membrane 2, Millicell-type insert, well 20: Insert leaked, insert/well HBSS/f-MLP, 2 × 10^−8 M, 0 hr.): 1228
- Fluorescence 0.5 hr. [5]: 5928
- Fluorescence 1 hr. [5]: 6063
- Fluorescence 2 hr. [5]: 6342
- Fluorescence 3 hr. [5]: 6504
- Fluorescence 0 hr. (membrane 2, Millicell-type inserts, insert/well HBSS/f-MLP, f-MLP Conc. = 2 × 10^−8 M, 0 hr. (zero time reading)): 1277 and 1242
- Fluorescence 0.5 hr. [6]: 1573 and 1207
- Fluorescence 1 hr. [6]: 1701 and 1830
- Fluorescence 2 hr. [6]: 1836 and 1931
- Fluorescence 3 hr. [6]: 1851 and 1969
- Fluorescence 0 hr. (membrane 2, Millicell-type inserts, insert/well f-MLP/f-MLP (f-MLP added to cell suspension immediately before start), 2 × 10^−8 M, 0 hr.): 1187 and 1231
- Fluorescence 0.5 hr. [7]: 1181 and 1325
- Fluorescence 1 hr. [7]: 1516 and 1454
- Fluorescence 2 hr. [7]: 1622 and 1541
- Fluorescence 3 hr. [7]: 1673 and 1604
- Fluorescence 0 hr. (membrane 2, Transwell-type inserts, insert/well HBSS/f-MLP, f-MLP Conc. = 2 × 10^−8 M, 0 hr. (zero time reading)): 1055 and 1064 and 1097
- Fluorescence 0.5 hr. [8]: 1770 and 1454 and 1775
- Fluorescence 1 hr. [8]: 2066 and 1846 and 2185
- Fluorescence 2 hr. [8]: 2351 and 2143 and 2411
- Fluorescence 3 hr. [8]: 2536 and 2292 and 2432
- Fluorescence 0 hr. (membrane 2, Transwell-type inserts, insert/well f-MLP/f-MLP (f-MLP added to cell suspension immediately before start), 2 × 10^−8 M, 0 hr.): 1049 and 961
- Fluorescence 0.5 hr. [9]: 1277 and 1245
- Fluorescence 1 hr. [9]: 1413 and 1390
- Fluorescence 2 hr. [9]: 1538 and 1564
- Fluorescence 3 hr. [9]: 1582 and 1711
